Like-named read-outs stand apart in the source and are kept apart here.
How the values were obtained:
[1] = urine of Caucasian smokers; ref Rangiah et al., 2011; cited from earlier work
[2] = test system: P450; conditions: rat, in vivo; cited from earlier work
[3] = target: T1, CYP2B6 (Homo sapiens, UniProt P20813); format: in vitro ADME; conditions: microsomes of HEK293 cells overexpressing CYP2B6
T1 sequence (P20813 1-491): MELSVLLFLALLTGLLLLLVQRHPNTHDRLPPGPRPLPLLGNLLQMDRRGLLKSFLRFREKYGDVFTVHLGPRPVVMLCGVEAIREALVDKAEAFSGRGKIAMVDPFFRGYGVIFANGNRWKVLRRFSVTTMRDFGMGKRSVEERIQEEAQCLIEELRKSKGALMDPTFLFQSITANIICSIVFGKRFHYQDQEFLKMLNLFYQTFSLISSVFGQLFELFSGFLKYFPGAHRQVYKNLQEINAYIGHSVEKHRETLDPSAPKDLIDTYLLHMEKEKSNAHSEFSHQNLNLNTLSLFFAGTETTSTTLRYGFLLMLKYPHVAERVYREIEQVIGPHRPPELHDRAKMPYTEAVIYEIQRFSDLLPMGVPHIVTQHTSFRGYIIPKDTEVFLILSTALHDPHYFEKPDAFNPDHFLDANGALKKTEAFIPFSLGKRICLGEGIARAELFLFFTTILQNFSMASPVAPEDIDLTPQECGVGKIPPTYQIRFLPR

[4] = ref Jarvis et al., 1988; cited from earlier work
[5] = target: CYP2E1 (Homo sapiens, UniProt P05181); format: in vitro ADME; conditions: microsomes of HEK293 cells overexpressing CYP2E1
[6] = target: CYP3A4 (Homo sapiens, UniProt P08684); format: in vitro ADME; conditions: microsomes of HEK293 cells overexpressing CYP3A4
[7] = Kinetic analysis of COX formation in pooled HLMs; format: in vitro ADME, human; conditions: pooled HLMs from 20 individuals
[8] = test system: COX formation in pooled HLMs; conditions: 500 μM COT, vs control without inhibitor
[9] = test system: CYP2A6; conditions: formation of COT from nicotine, ref Yamanaka et al., 2005; cited from earlier work
[10] = in smokers; no reference given; cited from earlier work
[11] = test system: CYP2B6; conditions: formation of COT from nicotine, ref Yamanaka et al., 2005; cited from earlier work
[12] = target: CYP2C19 (Homo sapiens, UniProt P33261); conditions: UM2C19/EM2C19 genotype groups compared with PM2C19 genotype group; ref Li-Wan-Po et al., 2010; cited from earlier work
Chain of CYP2C19 (P33261 whole entry): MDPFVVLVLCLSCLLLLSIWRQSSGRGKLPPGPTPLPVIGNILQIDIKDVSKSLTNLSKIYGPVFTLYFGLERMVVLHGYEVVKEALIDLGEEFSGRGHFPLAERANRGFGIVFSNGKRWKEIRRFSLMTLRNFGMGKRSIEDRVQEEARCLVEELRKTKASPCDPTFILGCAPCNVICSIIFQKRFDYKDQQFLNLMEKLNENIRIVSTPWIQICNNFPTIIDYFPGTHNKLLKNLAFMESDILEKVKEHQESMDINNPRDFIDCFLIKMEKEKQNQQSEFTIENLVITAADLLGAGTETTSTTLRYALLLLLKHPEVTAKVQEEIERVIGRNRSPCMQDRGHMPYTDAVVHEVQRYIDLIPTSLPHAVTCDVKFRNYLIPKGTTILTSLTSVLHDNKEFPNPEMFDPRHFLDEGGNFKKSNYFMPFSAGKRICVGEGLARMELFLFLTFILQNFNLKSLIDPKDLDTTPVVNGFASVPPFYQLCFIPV

Chain of CYP2E1 (P05181 whole entry): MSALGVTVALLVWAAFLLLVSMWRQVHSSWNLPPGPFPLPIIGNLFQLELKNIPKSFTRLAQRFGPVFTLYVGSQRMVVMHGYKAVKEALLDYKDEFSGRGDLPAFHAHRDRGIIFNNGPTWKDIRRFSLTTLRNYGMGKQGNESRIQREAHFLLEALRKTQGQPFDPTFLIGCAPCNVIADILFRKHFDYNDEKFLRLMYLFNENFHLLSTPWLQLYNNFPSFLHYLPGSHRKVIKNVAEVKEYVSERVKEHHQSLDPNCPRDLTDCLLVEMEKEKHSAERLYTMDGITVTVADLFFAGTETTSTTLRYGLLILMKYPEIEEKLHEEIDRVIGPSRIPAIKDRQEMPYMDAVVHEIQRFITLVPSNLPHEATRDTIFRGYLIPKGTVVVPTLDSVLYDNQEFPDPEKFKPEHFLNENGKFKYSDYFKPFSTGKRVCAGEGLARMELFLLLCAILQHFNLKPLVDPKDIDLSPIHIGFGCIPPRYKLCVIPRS
Chain of CYP3A4 (P08684 whole entry): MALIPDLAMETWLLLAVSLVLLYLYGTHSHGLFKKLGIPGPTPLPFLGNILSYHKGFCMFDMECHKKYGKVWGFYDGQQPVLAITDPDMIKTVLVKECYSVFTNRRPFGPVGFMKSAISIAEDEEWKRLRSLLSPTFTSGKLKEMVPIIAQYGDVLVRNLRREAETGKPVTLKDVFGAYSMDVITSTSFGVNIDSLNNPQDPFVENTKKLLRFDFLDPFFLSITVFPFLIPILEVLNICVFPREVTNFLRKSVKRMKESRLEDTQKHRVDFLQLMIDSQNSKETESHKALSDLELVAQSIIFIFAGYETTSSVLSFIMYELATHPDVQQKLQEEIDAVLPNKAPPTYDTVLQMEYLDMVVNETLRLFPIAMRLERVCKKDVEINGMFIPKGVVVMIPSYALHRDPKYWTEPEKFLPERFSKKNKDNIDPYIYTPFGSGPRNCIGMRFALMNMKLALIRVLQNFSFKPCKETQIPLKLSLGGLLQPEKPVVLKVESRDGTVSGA

For `O=C1CCC(c2cccnc2)N1CO` (stereo not shown) [N-(hydroxyl-methyl) norcotinine], the “average share of cotinine metabolites in urine” value [1] is given as 4%.

In the case of `CC(C)(C(=O)c1cccnc1)c1cccnc1` [metyrapone], the “effect on phenobarbital-induced increase of COX production” value [2] is listed as “negated”.

In the case of `CN1C(=O)CC[C@H]1c1cccnc1` [cotinine], the Km at 30 min [3] is given as 810 ± 24 µM, the “half-life of elimination from plasma” value [4] is given as 10 to 27 h and the Km at 30 min [5] is given as > 10000 µM. The Km at 30 min [6] was > 10000 µM, the Km ([7]; COX formation from cotinine) was 550 ± 49 µM and the Vmax ([7]; COX formation) was 587 ± 26 pmol/min/mg.

With `N[C@@H]1C[C@H]1c1ccccc1` (racemic) [tranylcypromine] the “decrease in COX formation” value ([8]; 1 µM inhibitor) was 15%.

In the case of `CCC1(c2ccccc2)C(=O)NC(=O)NC1=O` [phenobarbital], the “increase of COX production” value [2] is given as “eightfold”.

In the case of `CN1CCC[C@H]1c1cccnc1` [nicotine], the Km [9] is given as 95 µM, the “share of metabolism via formation of cotinine by CYP2A6” value [10] is given as ~70% and the Km [11] is given as 550 µM.

For `COC(=O)[C@H](c1ccccc1Cl)N1CCc2sccc2C1` [clopidogrel], the increased enzyme efficacy [12] is given as 35%–40% and the “decrease in COX formation” value ([8]; 10 µM inhibitor) is given as 21%.

In the case of `COc1ccc2[nH]c([S+]([O-])Cc3ncc(C)c(OC)c3C)nc2c1` (stereo not shown) [omeprazole], the increased enzyme efficacy [12] is listed as 35%–40%.
